Measured values taken from US20160052937A1, “Tetrahydroimidazo[1,5-d][1,4]oxazepine compound” (Eisai R&D Management Co., Ltd., priority 2014, published 2016).
pIC50: −log10 of the molar value.

Each compound was assayed against T1, human metabotropic glutamate receptor 2 (mGluR2) (Homo sapiens, UniProt Q14416) (assay: [35S]GTPγS binding assay (Affinity to mGluR2)). Conditions: cell membrane fraction of HEK293 cells stably expressing human mGluR2; glutamic acid 10 μM.
T1 construct: expressed in transfected cells; co-expressing human SLC1A3), cell membrane fraction
T1 sequence (Q14416 19-872): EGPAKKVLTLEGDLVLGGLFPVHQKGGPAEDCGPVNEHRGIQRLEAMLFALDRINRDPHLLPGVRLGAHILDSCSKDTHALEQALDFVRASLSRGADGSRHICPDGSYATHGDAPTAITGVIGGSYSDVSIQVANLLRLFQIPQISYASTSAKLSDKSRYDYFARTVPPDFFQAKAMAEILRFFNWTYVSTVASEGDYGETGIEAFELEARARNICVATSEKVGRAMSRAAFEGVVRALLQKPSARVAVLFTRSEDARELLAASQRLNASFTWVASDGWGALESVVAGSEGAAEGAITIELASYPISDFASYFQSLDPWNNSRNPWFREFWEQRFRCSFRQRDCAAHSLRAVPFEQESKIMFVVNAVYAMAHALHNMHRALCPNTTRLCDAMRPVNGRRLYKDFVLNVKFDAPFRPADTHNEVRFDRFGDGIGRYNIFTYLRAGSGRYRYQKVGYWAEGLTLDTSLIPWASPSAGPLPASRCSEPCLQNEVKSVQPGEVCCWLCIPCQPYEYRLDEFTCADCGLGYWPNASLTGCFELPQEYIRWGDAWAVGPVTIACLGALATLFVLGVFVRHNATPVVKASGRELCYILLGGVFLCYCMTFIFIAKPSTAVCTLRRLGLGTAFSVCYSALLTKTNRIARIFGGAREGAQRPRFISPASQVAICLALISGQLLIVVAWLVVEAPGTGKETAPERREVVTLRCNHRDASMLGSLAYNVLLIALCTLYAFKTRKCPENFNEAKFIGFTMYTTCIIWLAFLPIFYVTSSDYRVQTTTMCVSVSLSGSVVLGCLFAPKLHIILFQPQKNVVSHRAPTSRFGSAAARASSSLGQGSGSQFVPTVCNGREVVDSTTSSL
Assay type: biochemical
Protocol: (Preparation of Cell Membrane Fraction of HEK293 Cells Stably Expressing Human Metabotropic Glutamate Receptor 2 (mGluR2))
HEK293 cells stably expressing human mGluR2 and human glutamate transporter SLC1A3 were cultured in a Dulbecco's modified Eagle's medium with 10% fetal bovine serum (50 units/mL of penicillin, 50 μg/mL of streptomycin, 60 μg/mL of geneticin, 400 μg/mL of hygromycin B and 2 mM of glutamine) at 37° C. under 5% CO2. Confluent cell cultures were washed twice with PBS(−), and then scraped off with a cell scraper, and subjected to centrifugal separation at 4° C. and 1500 rpm for 5 minutes for collecting cells. The centrifuged sediment (cell pellet) was homogenized in a 20 mM HEPES buffer containing 10 mM EDTA (pH 7.4) by using sonicator and centrifuged at 4° C. and 1500×g for 30 minutes. The supernatant (soluble fraction) was subjected to the centrifugal separation at 4° C. and 40,000×g for 30 minutes, and thus, insoluble fraction was obtained. After additional centrifugally washing the obtained fraction with 20 mM HEPES buffer containing 10 mM EDTA (pH 7.4), the pellet was centrifugally suspended with a 20 mM HEPES buffer containing 0.1 mM EDTA, and the cell membrane fraction was obtained by the centrifugal separation at 4° C. and 40,000×g for 30 minutes. The thus obtained cell membrane fraction was suspended in a 20 mM HEPES buffer containing 0.1 mM EDTA in a protein concentration of 3 mg/mL, which was stored at −80° C.
([^35S]GTPγS binding assay)
The frozen cell membrane fraction prepared as described above was thawed before use, and the resultant was diluted with a buffer for a binding assay (final concentrations: 20 mM HEPES, 100 mM NaCl, 1 mM MgCl2, 3 μM GDP, 300 μg/mL saponin, 0.1% BSA). The compound of each example was added to a cell membrane fraction containing 1.8 to 3 μg/assay of membrane protein on a plate, followed by incubation at room temperature for 30 minutes. Thereafter, with glutamic acid (in a final concentration of 10 μM) added thereto, incubation was performed at room temperature for 15 minutes, and thereafter, [^35S]GTPγS (in a final concentration of 0.8 kBq) and 588 μg WGA-SPA beads were added thereto, followed by incubation at room temperature for 1 hour. After the incubation, the plate was subjected to the centrifugal separation at 2,500 rpm and room temperature, and then, membrane cell binding radioactivity was measured with a top count.
A [^35S]GTPγS binding amount obtained by performing the above-described reaction in the absence of glutamic acid was defined as nonspecific binding, and a difference from a [^35S]GTPγS binding amount obtained in the presence of glutamic acid was defined as specific binding. On the basis of ratios of inhibiting the specific binding at various concentrations of the compounds of the respective examples, inhibition curves were obtained. Concentrations of the compounds of the respective examples at which the specific [^35S]GTPγS binding amount was suppressed by 50% (IC50 values) were calculated on the basis of the inhibition curves and shown in Table 3.

Row | Structure (SMILES) | pIC50
1 | CC(C)NS(=O)(=O)c1ccc(-c2nc(-c3ccc(OCF)cc3)n3c2CCO[C@H](C)C3)cc1 [Example 4] | 8.48
2 | C[C@@H]1Cn2c(-c3ccc(OCF)cc3)nc(-c3ccc(S(=O)(=O)NC(C)(C)C)cc3)c2CCO1 [Example 5] | 8.57
3 | CCOc1ccc(-c2nc(-c3ccc(S(=O)(=O)NC(C)C)cc3)c3n2C[C@@H](C)OCC3)cc1 [Example 6] | 8.49
4 | CCOc1ccc(-c2nc(-c3ccc(S(=O)(=O)NC(C)(C)C)cc3)c3n2C[C@@H](C)OCC3)cc1 [Example 7] | 8.44
5 | C[C@@H]1Cn2c(-c3ccc(OC(F)F)cc3)nc(-c3ccc(S(=O)(=O)NC(C)(C)C)cc3)c2CCO1 [Example 9] | 8.57
6 | COc1ccc(-c2nc(-c3ccc(S(=O)(=O)NC(C)(C)C)cc3)c3n2C[C@@H](C)OCC3)cc1 [Example 10] | 8.74
7 | CC(C)NS(=O)(=O)c1ccc(-c2nc(-c3ccc(OC4COC4)cc3)n3c2CCOC(C)C3)cc1 (centres unmarked) [Example 11] | 8.15
8 | CC(C)NS(=O)(=O)c1ccc(-c2nc(-c3ccc(OC(F)F)cc3)n3c2CCO[C@H](C)C3)cc1 [Example 12] | 8.85
9 | C[C@@H]1Cn2c(-c3ccc(F)cc3)nc(-c3ccc(S(=O)(=O)NC(C)(C)C)cc3)c2CCO1 [Example 13] | 8.40
10 | CNS(=O)(=O)c1ccc(-c2nc(-c3ccc(F)cc3)n3c2CCO[C@H](C)C3)cc1 [Example 14] | 8.01
11 | CCNS(=O)(=O)c1ccc(-c2nc(-c3ccc(F)cc3)n3c2CCO[C@H](C)C3)cc1 [Example 15] | 8.39
12 | C[C@@H]1Cn2c(-c3ccc(F)cc3)nc(-c3ccc(S(=O)(=O)NC4CC4)cc3)c2CCO1 [Example 16] | 8.38
13 | CC1Cn2c(-c3ccc(F)cc3)nc(-c3ccc(S(=O)(=O)NC4(C)CCC4)cc3)c2CCO1 (centres unmarked) [Example 17] | 8.64
14 | C[C@@H]1Cn2c(-c3ccc(OCF)cc3)nc(-c3ccc(S(=O)(=O)NC4CC4)cc3)c2CCO1 [Example 18] | 8.44
15 | C[C@@H]1Cn2c(-c3ccc(OCF)cc3)nc(-c3ccc(S(=O)(=O)NC4CCC4)cc3)c2CCO1 [Example 19] | 8.20
16 | CNS(=O)(=O)c1ccc(-c2nc(-c3ccc(OCF)cc3)n3c2CCO[C@H](C)C3)cc1 [Example 20] | 7.66
17 | CCNS(=O)(=O)c1ccc(-c2nc(-c3ccc(OCF)cc3)n3c2CCO[C@H](C)C3)cc1 [Example 21] | 7.95
18 | CC1Cn2c(-c3ccc(OCF)cc3)nc(-c3ccc(S(=O)(=O)NC4(C)CCC4)cc3)c2CCO1 (centres unmarked) [Example 22] | 8.51
19 | C[C@@H]1Cn2c(-c3ccc(OC(F)F)cc3)nc(-c3ccc(S(=O)(=O)NC4CC4)cc3)c2CCO1 [Example 23] | 8.80
20 | C[C@@H]1Cn2c(-c3ccc(OC(F)F)cc3)nc(-c3ccc(S(=O)(=O)NC4CCC4)cc3)c2CCO1 [Example 24] | 8.57
21 | CNS(=O)(=O)c1ccc(-c2nc(-c3ccc(OC(F)F)cc3)n3c2CCO[C@H](C)C3)cc1 [Example 25] | 8.51
22 | CCNS(=O)(=O)c1ccc(-c2nc(-c3ccc(OC(F)F)cc3)n3c2CCO[C@H](C)C3)cc1 [Example 26] | 8.43
23 | CC1Cn2c(-c3ccc(OC(F)F)cc3)nc(-c3ccc(S(=O)(=O)NC4(C)CCC4)cc3)c2CCO1 (centres unmarked) [Example 27] | 8.64
24 | COc1ccc(-c2nc(-c3ccc(S(=O)(=O)NC4CC4)cc3)c3n2C[C@@H](C)OCC3)cc1 [Example 28] | 8.13
25 | CNS(=O)(=O)c1ccc(-c2nc(-c3ccc(OC)cc3)n3c2CCO[C@H](C)C3)cc1 [Example 29] | 7.57
26 | CCNS(=O)(=O)c1ccc(-c2nc(-c3ccc(OC)cc3)n3c2CCO[C@H](C)C3)cc1 [Example 30] | 8.13
27 | COc1ccc(-c2nc(-c3ccc(S(=O)(=O)NC4(C)CCC4)cc3)c3n2CC(C)OCC3)cc1 (centres unmarked) [Example 31] | 8.52

Row | Structure (SMILES) | pIC50
28 | CCOc1ccc(-c2nc(-c3ccc(S(=O)(=O)NC4CC4)cc3)c3n2C[C@@H](C)OCC3)cc1 [Example 32] | 8.41
29 | CCOc1ccc(-c2nc(-c3ccc(S(=O)(=O)NC4CCC4)cc3)c3n2C[C@@H](C)OCC3)cc1 [Example 33] | 8.52
30 | CCOc1ccc(-c2nc(-c3ccc(S(=O)(=O)NC)cc3)c3n2C[C@@H](C)OCC3)cc1 [Example 34] | 8.15
31 | CCNS(=O)(=O)c1ccc(-c2nc(-c3ccc(OCC)cc3)n3c2CCO[C@H](C)C3)cc1 [Example 35] | 8.74
32 | CCOc1ccc(-c2nc(-c3ccc(S(=O)(=O)NC4(C)CCC4)cc3)c3n2C[C@@H](C)OCC3)cc1 [Example 36] | 8.89
33 | C[C@@H]1Cn2c(-c3ccc(F)cc3)nc(-c3ccc(S(=O)(=O)NC4CCC4)cc3)c2CCO1 [Example 37] | 8.64
34 | O=S(=O)(NC1CCC1)c1ccc(-c2nc(-c3ccc(F)cc3)n3c2CCO[C@H](CF)C3)cc1 [Example 38] | 8.66
35 | CC1(NS(=O)(=O)c2ccc(-c3nc(-c4ccc(F)cc4)n4c3CCO[C@H](CF)C4)cc2)CCC1 [Example 39] | 9.05
36 | CC(C)NS(=O)(=O)c1ccc(-c2nc(-c3ccc(F)cc3)n3c2CCO[C@H](CF)C3)cc1 [Example 40] | 8.59
37 | CC(C)(C)NS(=O)(=O)c1ccc(-c2nc(-c3ccc(F)cc3)n3c2CCO[C@H](CF)C3)cc1 [Example 41] | 8.68
38 | CCNS(=O)(=O)c1ccc(-c2nc(-c3ccc(F)cc3)n3c2CCO[C@H](CF)C3)cc1 [Example 42] | 8.01
39 | COc1ccc(-c2nc(-c3ccc(S(=O)(=O)NC(C)C)cc3)c3n2C[C@@H](CF)OCC3)cc1 [Example 43] | 8.51
40 | COc1ccc(-c2nc(-c3ccc(S(=O)(=O)NC4CCC4)cc3)c3n2C[C@@H](CF)OCC3)cc1 [Example 44] | 8.64
41 | COc1ccc(-c2nc(-c3ccc(S(=O)(=O)NC4(C)CCC4)cc3)c3n2C[C@@H](CF)OCC3)cc1 [Example 45] | 8.66
42 | CCNS(=O)(=O)c1ccc(-c2nc(-c3ccc(OC)cc3)n3c2CCO[C@H](CF)C3)cc1 [Example 46] | 8.22
43 | COc1ccc(-c2nc(-c3ccc(S(=O)(=O)NC4CC4)cc3)c3n2C[C@@H](CF)OCC3)cc1 [Example 47] | 8.20
44 | CCOc1ccc(-c2nc(-c3ccc(S(=O)(=O)NC4CC4)cc3)c3n2C[C@@H](CF)OCC3)cc1 [Example 49] | 7.95
45 | CCNS(=O)(=O)c1ccc(-c2nc(-c3ccc(OCC)cc3)n3c2CCO[C@H](CF)C3)cc1 [Example 50] | 8.02
46 | CC(C)NS(=O)(=O)c1ccc(-c2nc(-c3ccc(OCF)cc3)n3c2CCO[C@H](CF)C3)cc1 [Example 51] | 7.92
47 | CC(C)(C)NS(=O)(=O)c1ccc(-c2nc(-c3ccc(OCF)cc3)n3c2CCO[C@H](CF)C3)cc1 [Example 52] | 8.39
48 | CC(C)NS(=O)(=O)c1ccc(-c2nc(-c3ccc(OC(F)F)cc3)n3c2CCO[C@H](CF)C3)cc1 [Example 53] | 8.33
49 | CC(C)(C)NS(=O)(=O)c1ccc(-c2nc(-c3ccc(OC(F)F)cc3)n3c2CCO[C@H](CF)C3)cc1 [Example 54] | 8.31
50 | CCOc1ccc(-c2nc(-c3ccc(S(=O)(=O)NC(C)(C)C)cc3)c3n2C[C@@H](CF)OCC3)cc1 [Example 55] | 8.54
51 | CCNS(=O)(=O)c1ccc(-c2nc(-c3ccc(OCF)cc3)n3c2CCO[C@H](CF)C3)cc1 [Example 56] | 7.97
52 | CC1(NS(=O)(=O)c2ccc(-c3nc(-c4ccc(OCF)cc4)n4c3CCO[C@H](CF)C4)cc2)CCC1 [Example 57] | 8.39
53 | O=S(=O)(NC1CCC1)c1ccc(-c2nc(-c3ccc(OCF)cc3)n3c2CCO[C@H](CF)C3)cc1 [Example 58] | 7.82
